Laboratory results taken from patent US11987575B2, “Tricyclic compounds as BCR-ABL inhibitors” (ASCENTAGE PHARMA (SUZHOU) CO., LTD., priority 2019, dated 2024).

Assays:
BaF3(WT) = BaF3(WT) (Homo sapiens, UniProt P00519); test: WST (CCK-8) anti-proliferative assay, BaF3 WT; conditions: read-out: BaF3(WT); BaF3 WT cells, 72 h treatment, CCK-8 readout OD 450 nm
Experimental: (§1) The anti-proliferative effect of representative compounds of the present disclosure was determined by a water-soluble tetrazolium (WST)-based assay using Cell Counting Kit-8 (CCK-8). Cells were seeded in 96-well plates and treated with different concentrations of test articles for 72 h. Each treatment was tested in triplicate. Briefly, a series of 9 concentrations were chosen for each test article and added at 100 μl/well into a 96-well plate. Each concentration was tested in triplicate. 100 μl of diluent was added into 3-6 wells in the same plate for cell control group, and another set of 3-6 wells was used as a blank control.
(§2) In each well, 100 μl of cell suspension (containing optimal cell numbers, which creates approximately 100% confluence of cells in control wells based on by the absorbance (OD) value) was dispensed into the same 96-well plate except for the blank well. The plate was then cultured at 37° C. in an incubator in an atmosphere with 5% CO2 for 72 h. At the end of the treatments, 20 μl/well of CCK-8 reagent was directly added to each well. The plate was then incubated at 37° C. in an incubator in an atmosphere with 5% CO2 for 2-4 hours.
(§3) The cells viability was calculated using the mean OD value of triplicated wells following the equation below: (OD sample−OD blank)/(OD cell control−OD blank)×100 IC50 values were calculated with Graphpad Prism 6.0 software using nonlinear regression (curve fitting) type data analysis.

BaF3 (T315I mutant) = BaF3 (T315I mutant) (Homo sapiens, UniProt P00519, T315I, cells depend on it); test: WST (CCK-8) anti-proliferative assay, BaF3 T315I mutant; conditions: read-out: BaF3 (T315I mutant), 72 h treatment, CCK-8 readout OD 450 nm
Experimental: as §1, §2, §3

Row | SMILES | GI50 (BaF3(WT)) | GI50 (BaF3 (T315I mutant))
1 | CC(=O)N[C@@H]1CC[C@H]2c3cc(C(=O)Nc4ccc(OC(F)(F)Cl)cc4)cc(-c4cnccn4)c3N(CC(C)(C)C)[C@@H]12 [Compound 58-A] | 18 nM | 80 nM
2 | CC(=O)N(C)C1CCC2c3cc(C(=O)Nc4ccc(OC(F)(F)Cl)cc4)cc(-c4ccn[nH]4)c3N(C(C)C)C21 (stereo not shown) [Compound 44, N-(4-(chlorodifluoromethoxy)phenyl)-4-isopropyl-3-(N-methylacetamido)-5-(1H-pyrazol-5-yl)-1,2,3,3a,4,8b-hexahydrocyclopenta[b]indole-7-carboxamide] | 36 nM | 122 nM
3 | CC(C)C(=O)NC1CCC2c3cc(C(=O)Nc4ccc(OC(F)(F)Cl)cc4)cc(-c4ccn[nH]4)c3N(C(C)C)C12 (stereo not shown) [Compound 7] | 14 nM | 142 nM
4 | CC(C)N1c2c(-c3ccn[nH]3)cc(C(=O)Nc3ccc(OC(F)(F)Cl)cc3)cc2C2CCC(NS(=O)(=O)N3CCOCC3)C21 (stereo not shown) [Compound 13] | 12 nM | 122 nM
5 | CC(=O)N[C@H]1CC[C@@H]2c3cc(C(=O)Nc4ccc(OC(F)(F)Cl)cc4)cc(-c4cncnc4)c3N(C(C)C)[C@H]12 [Compound 20-B, (3S,3aS,8bR)-3-acetamido-N-(4-(chlorodifluoromethoxy)phenyl)-4-isopropyl-5-(pyrimidin-5-yl)-1,2,3,3a,4,8b-hexahydrocyclopenta[b]indole-7-carboxamide] | 365 nM | 1380 nM
6 | CNS(=O)(=O)NC1CCC2c3cc(C(=O)Nc4ccc(OC(F)(F)Cl)cc4)cc(-c4ccn[nH]4)c3N(C(C)C)C12 (stereo not shown) [Compound 5] | 34 nM | 144 nM
7 | CC(=O)N[C@@H]1CC[C@H]2c3cc(C(=O)Nc4ccc(OC(F)(F)Cl)cc4)cc(-c4cccnn4)c3N(CC(C)(C)C)[C@@H]12 [Compound 59-A] | 65 nM | 122 nM
8 | COCC(=O)NC1CCC2c3cc(C(=O)Nc4ccc(OC(F)(F)Cl)cc4)cc(-c4ccn[nH]4)c3N(C(C)C)C12 (stereo not shown) [Compound 9] | 17 nM | 206 nM
9 | CC(=O)N1CCC2c3cc(C(=O)Nc4ccc(OC(F)(F)Cl)cc4)cc(-c4ccn[nH]4)c3N(C(C)C)C2C1 (stereo not shown) [Compound 42, 2-acetyl-N-(4-(chlorodifluoromethoxy)phenyl)-9-isopropyl-8-(1H-pyrazol-5-yl)-2,3,4,4a,9,9a-hexahydro-1H-pyrido[3,4-b]indole-6-carboxamide] | 38 nM | 115 nM
10 | CC(=O)N[C@@H]1CC[C@H]2c3cc(C(=O)Nc4ccc(OC(F)(F)Cl)cc4)cc(-c4cccc(C#N)c4)c3N(C(C)C)[C@@H]12 [Compound 66-A] | 3 nM | 29 nM
11 | CC(=O)N[C@@H]1CC[C@H]2c3cc(C(=O)Nc4ccc(OC(F)(F)Cl)cc4)cc(-c4cncc(F)c4)c3N(C(C)C)[C@@H]12 [Compound 46-A] | 2 nM | 8 nM
12 | CC(C)N1c2c(-c3ccn[nH]3)cc(C(=O)Nc3ccc(OC(F)(F)Cl)cc3)cc2C2CCC(Nc3cnccn3)C21 (stereo not shown) [Compound 34, N-(4-(chlorodifluoromethoxy)phenyl)-4-isopropyl-3-(pyrazin-2-ylamino)-5-(1H-pyrazol-5-yl)-1,2,3,3a,4,8b-hexahydrocyclopenta[b]indole-7-carboxamide] | 17 nM | 411 nM
13 | CC(C)N1c2c(-c3ccn[nH]3)cc(C(=O)Nc3ccc(OC(F)(F)Cl)cc3)cc2C2CCC(NC(=O)C3CN(C)C3)C21 (stereo not shown) [Compound 29, N-(4-(chlorodifluoromethoxy)phenyl)-4-isopropyl-3-(1-methylazetidine-3-carboxamido)-5-(1H-pyrazol-5-yl)-1,2,3,3a,4,8b-hexahydrocyclopenta[b]indole-7-carboxamide] | 177 nM | 1260 nM
14 | CC(=O)NC1CCC2c3cc(C(=O)Nc4ccc(OC(F)(F)Cl)cc4)cc(-c4ccncc4)c3N(C(C)C)C12 (stereo not shown) [Compound 21] | 27 nM | 176 nM
15 | CC(=O)N[C@@H]1CC[C@H]2c3cc(C(=O)Nc4ccc(OC(F)(F)Cl)cc4)cc(-c4ccc(C#N)nc4)c3N(C(C)C)[C@@H]12 [Compound 47-A] | 5 nM | 13 nM
16 | CC(C)N1c2c(-c3ccn[nH]3)cc(C(=O)Nc3ccc(OC(F)(F)Cl)cc3)cc2C2CCC(N3CCCC3=O)C21 (stereo not shown) [Compound 35, N-(4-(chlorodifluoromethoxy)phenyl)-4-isopropyl-3-(2-oxopyrrolidin-1-yl)-5-(1H-pyrazol-5-yl)-1,2,3,3a,4,8b-hexahydrocyclopenta[b]indole-7-carboxamide] | 12 nM | 55 nM
17 | CC(=O)NC1CCC2c3cc(C(=O)Nc4ccc(OC(F)(F)Cl)cc4)cc(-c4cccnc4)c3N(C(C)C)C12 (stereo not shown) [Compound 26] | 12 nM | 65 nM
18 | CC(C)N1c2c(-c3ccn[nH]3)cc(C(=O)Nc3ccc(OC(F)(F)Cl)cc3)cc2C2CCC(N3CCNC3=O)C21 (stereo not shown) [Compound 38, N-(4-(chlorodifluoromethoxy)phenyl)-4-isopropyl-3-(2-oxoimidazolidin-1-yl)-5-(1H-pyrazol-5-yl)-1,2,3,3a,4,8b-hexahydrocyclopenta[b]indole-7-carboxamide] | 18 nM | 77 nM

Row | SMILES | GI50 (BaF3(WT)) | GI50 (BaF3 (T315I mutant))
19 | CC(=O)N[C@H]1CC[C@@H]2c3cc(C(=O)Nc4ccc(OC(F)(F)Cl)cc4)cc(-c4ccn[nH]4)c3N(C(C)C)[C@H]12 [Compound 4-B, (3S,3aS,8bR)-3-acetamido-N-(4-(chlorodifluoromethoxy)phenyl)-4-isopropyl-5-(1H-pyrazol-5-yl)-1,2,3,3a,4,8b-hexahydrocyclopenta[b]indole-7-carboxamide] | 535 nM | 1270 nM
20 | CC(C)N1c2c(-c3ccn[nH]3)cc(C(=O)Nc3ccc(OC(F)(F)Cl)cc3)cc2C2CCC(O)C21 (stereo not shown) [Compound 1, N-(4-(chlorodifluoromethoxy)phenyl)-3-hydroxy-4-isopropyl-5-(1H-pyrazol-5-yl)-1,2,3,3a,4,8b-hexahydrocyclopenta[b]indole-7-carboxamide] | 17 nM | 192 nM
21 | CC(C)N1c2c(-c3ccn[nH]3)cc(C(=O)Nc3ccc(OC(F)(F)Cl)cc3)cc2C2CCC(NS(=O)(=O)N(C)C)C21 (stereo not shown) [Compound 12] | 10 nM | 216 nM
22 | CNC(=O)NC1CCC2c3cc(C(=O)Nc4ccc(OC(F)(F)Cl)cc4)cc(-c4ccn[nH]4)c3N(C(C)C)C12 (stereo not shown) [Compound 11] | 53 nM | 64 nM
23 | CC(C)N1c2c(-c3ccn[nH]3)cc(C(=O)Nc3ccc(OC(F)(F)Cl)cc3)cc2C2CCC(NS(=O)(=O)c3nnc[nH]3)C21 (stereo not shown) [Compound 17] | 1060 nM | 1670 nM
24 | CC(=O)N[C@@H]1CC[C@H]2c3cc(C(=O)Nc4ccc(OC(F)(F)Cl)cc4)cc(-c4cncc(Cl)c4)c3N(C(C)C)[C@@H]12 [Compound 52-A] | 3 nM | 47 nM
25 | CC(=O)N[C@@H]1CC[C@H]2c3cc(C(=O)Nc4ccc(OC(F)(F)Cl)cc4)cc(-c4ccn[nH]4)c3N(CC(C)(C)C)[C@@H]12 [Compound 22-A, (3R,3aR,8bS)-3-acetamido-N-(4-(chlorodifluoromethoxy)phenyl)-4-neopentyl-5-(1H-pyrazol-5-yl)-1,2,3,3a,4,8b-hexahydrocyclopenta[b]indole-7-carboxamide] | 3 nM | 21 nM
26 | CC(=O)NC1CCC2c3cc(C(=O)Nc4ccc(OC(F)(F)Cl)cc4)cc(-c4cc[nH]n4)c3N(CC(F)(F)F)C12 (stereo not shown) [Compound 49] | 72 nM | 125 nM
27 | CC(=O)NC1CCC2c3cc(C(=O)Nc4ccc(OC(F)(F)Cl)cc4)cc(-c4cncnc4)c3N(C(C)C)C12 (stereo not shown) [Compound 20] | 9 nM | 44 nM
28 | CC(=O)N[C@@H]1CC[C@H]2c3cc(C(=O)Nc4ccc(OC(F)(F)Cl)cc4)cc(-c4ccc(C)nc4)c3N(CC(C)(C)C)[C@@H]12 [Compound 60-A] | 13 nM | 92 nM
29 | CC(=O)N[C@@H]1CC[C@H]2c3cc(C(=O)Nc4ccc(OC(F)(F)Cl)cc4)cc(-c4ccncn4)c3N(CC(C)(C)C)[C@@H]12 [Compound 57-A] | 97 nM | 316 nM
30 | CC(C)N1c2c(-c3ccn[nH]3)cc(C(=O)Nc3ccc(OC(F)(F)Cl)cc3)cc2C2CCN(CC(F)(F)F)CC21 (stereo not shown) [Compound 41, N-(4-(chlorodifluoromethoxy)phenyl)-9-isopropyl-8-(1H-pyrazol-5-yl)-2-(2,2,2-trifluoroethyl)-2,3,4,4a,9,9a-hexahydro-1H-pyrido[3,4-b]indole-6-carboxamide] | 120 nM | 850 nM
31 | CC(C)N1c2c(-c3ccn[nH]3)cc(C(=O)Nc3ccc(OC(F)(F)Cl)cc3)cc2C2CCC(NC(=O)N3CCN(C)CC3)C21 (stereo not shown) [Compound 14] | 41 nM | 208 nM
32 | CC(C)N1c2c(-c3ccn[nH]3)cc(C(=O)Nc3ccc(OC(F)(F)Cl)cc3)cc2C2CCC(NS(=O)(=O)C3CCOCC3)C21 (stereo not shown) [Compound 25] | 15 nM | 183 nM
33 | CC(=O)NC1CCC2c3cc(C(=O)Nc4ccc(OC(F)(F)Cl)cc4)cc(-c4ccn[nH]4)c3N(CC(C)C)C12 (stereo not shown) [Compound 23] | 10 nM | 81 nM
34 | CC(C)N1c2c(-c3ccn[nH]3)cc(C(=O)Nc3ccc(OC(F)(F)Cl)cc3)cc2C2CCCC21 (stereo not shown) [Compound 2, N-(4-(chlorodifluoromethoxy)phenyl)-4-isopropyl-5-(1H-pyrazol-5-yl)-1,2,3,3a,4,8b-hexahydrocyclopenta[b]indole-7-carboxamide] | 15 nM | 354 nM
35 | CC(=O)N[C@@H]1CC[C@H]2c3cc(C(=O)Nc4ccc(OC(F)(F)Cl)cc4)cc(-c4cnc(C)nc4)c3N(CC(C)(C)C)[C@@H]12 [Compound 61-A] | 11 nM | 56 nM
